Converted amounts (≈) assume the structure as drawn. Read-outs that look alike come from different tables or passages of the source.
Assays:
Assay in all cases: Minimum inhibitory concentration, conventional tube dilution method
Format in all cases: cell-based
Staph. aureus = settings: Staphylococcus aureus, read-out: Minimal Inhibitory Concentration, Staph. aureus
Source text: (§1) The activity of some of the new nitrofuryl quinoline derivatives of the present invention is exemplified in Table 1 against a gram-positive (Staph. aureus), a gram-negative (Salmonella) bacterium and a fungus (Candida albicans). Table 1 indicates the minimum inhibitory concentration of the compound under reference in mg/100 cc required in order to inhibit the growth between 1 and 6 strains of each type. The measurements have been carried out by the conventional tube dilution method at 37 degrees after 24 hours.

Candida albicans = settings: read-out: Minimal Inhibitory Concentration, Cand. Alb.
Source text: as §1

Salmonella = settings: gram-negative, tube dilution, 37 degrees, 24 hours, between 1 and 6 strains, mg/100 cc, decimal comma, read-out: Minimal Inhibitory Concentration, Salm.
Source text: as §1

[1] = gram-positive, tube dilution, 37 degrees, 24 hours, between 1 and 6 strains, mg/100 cc, decimal comma
[2] = fungus, tube dilution, 37 degrees, 24 hours, between 1 and 6 strains, mg/100 cc, decimal comma

SMILES	MIC (Staph. aureus; [1])	MIC (Candida albicans; [2])	MIC (Salmonella)	MIC (Staph. aureus; 24 h)	MIC (Candida albicans; 24 h)
Cc1cc(-c2ccc([N+](=O)[O-])o2)c2ccc(O)cc2n1 [CH3 H NF H H OH H, 2-methyl-4-[2'-(5'-nitrofuryl)]-7-hydroxy quinoline]	0.1 µg/mL (≈ 0.37 µM)	10 µg/mL (≈ 37 µM)	5 µg/mL (≈ 18.5 µM)	–	–
CCCCOc1cc2nc(C)cc(-c3ccc([N+](=O)[O-])o3)c2cc1OCCCC [CH3 H NF H OC4 H9 OC4 H9 H]	5 µg/mL (≈ 12.5 µM)	> 50 µg/mL	10 µg/mL (≈ 25.1 µM)	–	–
COc1cc2nc(C)cc(-c3ccc([N+](=O)[O-])o3)c2cc1OC [CH3 H NF H OCH3 OCH3 H]	0.5 to 1 µg/mL (≈ 1.59 to 3.18 µM)	> 50 µg/mL	25 µg/mL (≈ 79.5 µM)	–	–
Cc1cc(-c2ccc([N+](=O)[O-])o2)c2cc3ccccc3cc2n1 [CH3 H NF H drawing 6 H, 2-methyl-4-[2'-(5'-nitrofuryl)]-6,7-benzoquinoline]	5 µg/mL (≈ 16.4 µM)	> 50 µg/mL	> 10 µg/mL	–	–
Cc1cc(-c2ccc([N+](=O)[O-])o2)c2c([N+](=O)[O-])ccc(C)c2n1 [CH3 H NF NO2 H H CH3]	–	–	> 50 µg/mL	0.5 to 1 µg/mL (≈ 1.6 to 3.19 µM)	> 50 µg/mL
COc1ccc(OC)c2c(-c3ccc([N+](=O)[O-])o3)cc(C)nc12 [CH3 H NF OCH3 H H OCH3, 2-methyl-4-[2'-(5'-nitrofuryl)]-5,8-dimethoxy quinoline]	50 µg/mL (≈ 159 µM)	> 50 µg/mL	> 50 µg/mL	–	–
COc1cc(OC)c2c(-c3ccc([N+](=O)[O-])o3)cc(C)nc2c1 [CH3 H NF OCH3 H OCH3 H]	0.5 µg/mL (≈ 1.59 µM)	> 50 µg/mL	> 50 µg/mL	–	–
CCc1ccc2nc(C(C)C)cc(-c3ccc([N+](=O)[O-])o3)c2c1 [CH(CH3)2 H 5NF H C2 H5 H H, 2-isopropyl-4-[2'-(5'-nitrofuryl)]-6-ethyl quinoline]	0.5 µg/mL (≈ 1.61 µM)	50 µg/mL (≈ 161 µM)	–	–	–
CC(=O)OC(OC(C)=O)c1cc(-c2ccc([N+](=O)[O-])o2)c2ccccc2n1 [CH(OAc)2 H NF H H H H]	0.1 µg/mL (≈ 0.27 µM)	25 to 50 µg/mL (≈ 67.5 to 135 µM)	5 µg/mL (≈ 13.5 µM)	–	–
CCN(CC)C(=O)c1cc(-c2ccc([N+](=O)[O-])o2)c2ccccc2n1 [CON(C2 H5)2 H NF H H H H, 4-[2'-(5'-nitrofuryl)]quinoline-2-carboxylic acid diethylamide]	0.5 to 1 µg/mL (≈ 1.47 to 2.95 µM)	> 50 µg/mL	> 50 µg/mL	–	–
Cc1ccc2c(-c3ccc([N+](=O)[O-])o3)cc(C(=O)O)nc2c1 [COOH H 5NF H H CH3 H, 2-carboxy-4-[2'-(5'-nitrofuryl)]-7-methyl quinoline]	0.5 µg/mL (≈ 1.68 µM)	50 µg/mL (≈ 168 µM)	25 µg/mL (≈ 83.8 µM)	–	–
COc1ccc2c(-c3ccc([N+](=O)[O-])o3)cc(C(=O)O)nc2c1 [COOH H 5NF H H OCH3 H]	0.5 µg/mL (≈ 1.59 µM)	50 µg/mL (≈ 159 µM)	10 µg/mL (≈ 31.8 µM)	–	–
CCc1cc(-c2ccc([N+](=O)[O-])o2)c2cc(C)ccc2[n+]1[O-] [O C2 H5 H NF H CH3 H H]	0.1 µg/mL (≈ 0.335 µM)	< 5 µg/mL	–	–	–
CCc1cc(-c2ccc([N+](=O)[O-])o2)c2ccc(OC)cc2[n+]1[O-] [O C2 H5 H NF H H OCH3 H]	0.01 to 0.5 µg/mL (≈ 0.0318 to 1.59 µM)	> 50 µg/mL	–	–	–
CCCCOc1ccc2c(-c3ccc([N+](=O)[O-])o3)cc(C)[n+]([O-])c2c1 [O CH3 H NF H H OC4 H9 H]	0.5 to 1 µg/mL (≈ 1.46 to 2.92 µM)	> 10 µg/mL	–	–	–
COc1cc2c(-c3ccc([N+](=O)[O-])o3)cc(C)[n+]([O-])c2cc1OC [O CH3 H NF H OCH3 OCH3 H]	–	> 50 µg/mL	> 50 µg/mL	–	–
O=[N+]([O-])c1ccc(-c2cc(C=NO)[n+]([O-])c3ccccc23)o1 [O CHNOH H NF H H H H]	–	0.5 µg/mL (≈ 1.67 µM)	1 to 5 µg/mL (≈ 3.34 to 16.7 µM)	–	–
Cc1ccc2c(-c3ccc([N+](=O)[O-])o3)cc(C(=O)O)[n+]([O-])c2c1 [O COOH H NF H H CH3 H, 2-carboxy-4-[2'-(5'-nitrofuryl)]-7-methyl quinoline N-oxide]	0.5 µg/mL (≈ 1.59 µM)	50 µg/mL (≈ 159 µM)	–	–	–
O=[N+]([O-])c1ccc(-c2ccc3ccccc3[n+]2[O-])o1 [O NF H H H H H H]	0.5 µg/mL (≈ 1.95 µM)	< 5 µg/mL	–	–	–
CNN=Cc1cc(-c2ccc([N+](=O)[O-])o2)c2ccccc2n1 [drawing 7 H NF H H H H]	–	10 to 25 µg/mL (≈ 33.8 to 84.4 µM)	1 to 5 µg/mL (≈ 3.38 to 16.9 µM)	–	–
NC(=O)NN=Cc1cc(-c2ccc([N+](=O)[O-])o2)c2ccccc2n1 [drawing 8 H NF H H H H]	–	25 to 50 µg/mL (≈ 76.9 to 154 µM)	5 µg/mL (≈ 15.4 µM)	–	–
O=[N+]([O-])c1ccc(-c2cc(C=NNCCO)nc3ccccc23)o1 [drawing 9 H NF H H H H]	–	25 µg/mL (≈ 76.6 µM)	5 µg/mL (≈ 15.3 µM)	–	–
O=C1OCCN1N=Cc1cc(-c2ccc([N+](=O)[O-])o2)c2ccccc2n1 [drawing 10 H NF H H H H]	0.1 to 0.5 µg/mL (≈ 0.284 to 1.42 µM)	5 µg/mL (≈ 14.2 µM)	–	–	–
